Measurements from US12247011B2, “Selective inhibitors of NLRP3 inflammasome” (NodThera Limited, priority 2017, dated 2025).

Test system: IL-1β release upon NLRP3 activation in peripheral blood mononuclear cells (PBMC)
Test: PBMC IC50 Determination Assay
Type: cell-based
Conditions: Homo sapiens; LPS-primed PBMC, 30 min compound, stimulated with ATP (5 mM) or nigericin (10 μM) for 1 h; IL-1β ELISA; read-out: PBMC IC50
Experimental: PBMC IC50 Determination Assay
The compounds of the present disclosure were tested for their inhibitory activity against IL-1β release upon NLRP3 activation in peripheral blood mononuclear cells (PBMC).
Isolated cells were seeded into the wells of a 96-well plate and incubated for 3 h with lipopolysaccharide (LPS). Following medium exchange, the compounds of the present disclosure were added (a single compound per well) and the cells were incubated for 30 min. Next, the cells were stimulated either with ATP (5 mM) or nigericin (10 μM) for 1 h and the cell culture media from the wells were collected for further analysis.
The release of IL-1β into the media was determined by a quantitative detection of IL-1β in the media using an IL-1β enzyme-linked immunosorbent assay (ELISA) Ready-SET-Go!, eBioscience cat. […] Subsequently, plates were blocked with blocking buffer for 1 h at room temperature (rt) and after washing with a buffer (PBS with 0.05% Tween-20) incubated with protein standard and culture media. […] Plates were washed and incubated with HRP-streptavidin for 30 min at rt and washed again. The signal was developed after addition of 3,3,5,5-tetramethylbenzidine-peroxidase (TMB) until colour appeared and the reaction was stopped by 2 M H2SO4. A microplate spectrophotometer (BioTek) was used to detect signals with 450 nm. The detection range of IL-1β ELISA was 2-150 ng/ml.

O=C(Nc1c2c(cc3c1CCC3)CCC2)O[C@H](Cn1cccn1)C(=O)O [Compound 61, (2R)-2-{[(1,2,3,5,6,7-hexahydro-s-indacen-4-yl)carbamoyl]oxy}-3-(1H-pyrazol-1-yl)propanoic acid]
IC50: 100 to 1000 nM

CCOC(=O)C(Cc1cccnn1)OC(=O)Nc1c2c(cc3c1CCC3)CCC2 (stereo not shown) [Compound 62, Ethyl 2-{[(1,2,3,5,6,7-hexahydro-s-indacen-4-yl)carbamoyl]oxy}-3-(pyridazin-3-yl)propanoate]
IC50: 100 to 1000 nM

CCOC(=O)C(Cn1cccn1)OC(=O)Nc1c(F)ccc(F)c1F (stereo not shown) [Compound 63, Ethyl 3-(1H-pyrazol-1-yl)-2-{[(2,3,6-trifluorophenyl)carbamoyl]oxy}propanoate]
IC50: 100 to 1000 nM

O=C(Nc1c2c(cc3c1CCC3)CCC2)O[C@H](Cn1cccn1)C(=O)OCc1ccccc1 [Compound 64, Benzyl (2R)-2-{[(1,2,3,5,6,7-hexahydro-s-indacen-4-yl)carbamoyl]oxy}-3-(1H-pyrazol-1-yl)propanoate]
IC50: 100 to 1000 nM

CCOC(=O)C(Cn1cccn1)OC(=O)Nc1c(F)cccc1CC (stereo not shown) [Compound 66, Ethyl 2-{[(2-ethyl-6-fluorophenyl)carbamoyl]oxy}-3-(1H-pyrazol-1-yl)propanoate]
IC50: 100 to 1000 nM

CCOC(=O)[C@@H](Cn1ccnc1)OC(=O)Nc1c2c(cc3c1CCC3)CCC2 [Compound 67, Ethyl (2R)-2-{[(1,2,3,5,6,7-hexahydro-s-indacen-4-yl)carbamoyl]oxy}-3-(1H-imidazol-1-yl)propanoate]
IC50: 100 to 1000 nM

CCOC(=O)[C@@H](COC)OC(=O)Nc1c2c(cc3c1CCC3)CCC2 [Compound 68, Ethyl (2R)-2-{[(1,2,3,5,6,7-hexahydro-indacen-4-yl)carbamoyl]oxy}-3-methoxypropanoate]
IC50: 1000 to 10000 nM

COC[C@@H](OC(=O)Nc1c2c(cc3c1CCC3)CCC2)C(=O)O [Compound 69, (2R)-2-{[(1,2,3,5,6,7-hexahydro-s-indacen-4-yl)carbamoyl]oxy}-3-methoxypropanoic acid]
IC50: 100 to 1000 nM

CCOC(=O)C(Cn1cccn1)OC(=O)Nc1cccc(C(F)(F)F)c1Cl (stereo not shown) [Compound 70, Ethyl 2-({[2-chloro-3-(trifluoromethyl)phenyl]carbamoyl}oxy)-3-(1H-pyrazol-1-yl)propanoate]
IC50: 1000 to 10000 nM

CCOC(=O)C(Cn1ccc(C)n1)OC(=O)Nc1c2c(cc3c1CCC3)CCC2 (stereo not shown) [Compound 72, Ethyl 2-{[(1,2,3,5,6,7-hexahydro-s-indacen-4-yl)carbamoyl]oxy}-3-(3-methyl-1H-pyrazol-1-yl)propanoate]
IC50: 10 to 100 nM

CCOC(=O)C(Cn1cccn1)OC(=O)Nc1c(F)cc(F)cc1F (stereo not shown) [Compound 73, Ethyl 3-(1H-pyrazol-1-yl)-2-{[(2,4,6-trifluorophenyl)carbamoyl]oxy}propanoate]
IC50: 100 to 1000 nM

CCOC(=O)C(Cn1cccn1)OC(=O)Nc1c(C)cccc1C(C)C (stereo not shown) [Compound 74, Ethyl 2-({[2-methyl-6-(propan-2-yl)phenyl]carbamoyl}oxy)-3-(1H-pyrazol-1-yl)propanoate]
IC50: 100 to 1000 nM

CCOC(=O)C(Cn1cccn1)OC(=O)Nc1c(F)ccc(Cl)c1F (stereo not shown) [Compound 75, Ethyl 2-{[(3-chloro-2,6-difluorophenyl)carbamoyl]oxy}-3-(1H-pyrazol-1-yl)propanoate]
IC50: 100 to 1000 nM

N#Cc1cnn(C[C@@H](OC(=O)Nc2c3c(cc4c2CCC4)CCC3)C(=O)OCc2ccccc2)c1 [Compound 77, Benzyl (2R)-3-(4-cyano-1H-pyrazol-1-yl)-2-{[(1,2,3,5,6,7-hexahydro-s-indacen-4-yl)carbamoyl]oxy}propanoate]
IC50: 10 to 100 nM

O=C(Nc1c2c(cc3c1CCC3)CCC2)O[C@H](Cn1ccnc1)C(=O)O [Compound 79, (2R)-2-{[(1,2,3,5,6,7-hexahydro-s-indacen-4-yl)carbamoyl]oxy}-3-(1H-imidazol-1-yl)propanoic acid]
IC50: 1000 to 10000 nM

CCOC(=O)C(Cn1cc(F)cn1)OC(=O)Nc1c2c(cc3c1CCC3)CCC2 (stereo not shown) [Compound 80, Ethyl 3-(4-fluoro-1H-pyrazol-1-yl)-2-{[(1,2,3,5,6,7-hexahydro-s-indacen-4-yl)carbamoyl]oxy}propanoate]
IC50: 10 to 100 nM
